TGI data for ten molecules are collected here from PubChem BioAssay (NCI).

SMILES strings stand for the structures.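 Protocol summary: plate cells (96-well), add compound at 5 concentrations, incubate 48 h, interpolate endpoints linearly. TGI denotes the concentration required for complete inhibition of growth.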

Among the test systems are 786-0 renal; BT-549 breast; HT29 colon; MDA-N; OVCAR-3 ovarian; SF-268 CNS; SF-539 CNS; SR leukemia; T-47D breast; U251 CNS; UACC-62 melanoma.
Assay in all cases: DTP human tumour cell line panel, 48 h

The TGI is the concentration at which net growth stops. Low readings indicate greater sensitivity of the cells, high ones lower sensitivity of the cells. As for `CSc1ccc(/C=C2\N=C(c3ccccc3)N(/N=C/c3cc4cc(C)ccc4nc3Cl)C2=O)cc1`, the TGI in the assay with 786-0 renal was 35.1 µM; with BT-549 breast, 56.5 µM; in the assay on HT29 colon, 62.1 µM; with MDA-N, 34.5 µM; in the assay on OVCAR-3 ovarian, 48.7 µM; in the assay on SF-268 CNS it was 47.6 µM. Further, the TGI was 43.3 µM in the assay on SF-539 CNS; 44.2 µM in the assay on SR leukemia; 91 µM in the assay on T-47D breast; 51.2 µM in the assay on U251 CNS; 33.7 µM in the assay on UACC-62 melanoma.
Take `S=C(NCc1ccccc1)N/N=C/c1ccccn1`: the TGI with 786-0 renal is more than 65.3 µM; in the assay on BT-549 breast it was more than 100 µM; with HT29 colon it was more than 100 µM; in the assay with MDA-N, more than 100 µM; in the assay with OVCAR-3 ovarian, more than 100 µM; with SF-268 CNS it was more than 91.4 µM. Also, the TGI in the assay with SF-539 CNS is more than 100 µM; with SR leukemia, more than 21 µM; in the assay on T-47D breast it was more than 100 µM; in the assay on U251 CNS, 23.9 µM; in the assay with UACC-62 melanoma, 25.1 µM.
Regarding `COc1ccc(-c2cc(C(O)C3CCCCN3)c3ccccc3n2)cc1` (stereo not given), the TGI with 786-0 renal was determined as 20.6 µM; with BT-549 breast it was 32.2 µM; in the assay with HT29 colon, 11.5 µM; in the assay with MDA-N, 16.7 µM; in the assay on OVCAR-3 ovarian, 27.8 µM; in the assay with SF-268 CNS it was 27.7 µM. Also, the TGI was 23.5 µM with SF-539 CNS; 1.46 µM in the assay on SR leukemia; 14.1 µM with T-47D breast; 14.5 µM in the assay with U251 CNS; 12 µM in the assay on UACC-62 melanoma.
On to `Cc1cc2cc3c(cc2c(-c2ccc(N)cc2)n1)OCO3`, for which the TGI is 57.4 µM in the assay with 786-0 renal; more than 100 µM in the assay on BT-549 breast; 62.2 µM in the assay on HT29 colon; more than 100 µM in the assay on MDA-N; 67.9 µM with OVCAR-3 ovarian; 79.3 µM in the assay on SF-268 CNS. Moreover, the TGI in the assay with SF-539 CNS was more than 100 µM; with SR leukemia it was 52.5 µM; in the assay on T-47D breast it was more than 100 µM; in the assay on U251 CNS it was more than 100 µM; in the assay with UACC-62 melanoma, more than 100 µM.
As for `NS(=O)(=O)c1ccc(NNc2c3ccccc3nc3c(C(=O)Nc4ccc(S(=O)(=O)Nc5ncccn5)cc4)cccc23)cc1`, the TGI in the assay on 786-0 renal, in the assay on BT-549 breast, with HT29 colon, in the assay with MDA-N, with OVCAR-3 ovarian and with SF-268 CNS was more than 25 µM throughout. Further, the TGI in the assay on SF-539 CNS, in the assay with SR leukemia, in the assay on T-47D breast, with U251 CNS and with UACC-62 melanoma was more than 25 µM each time.
In the case of `Cc1ccc(/C(O)=C/c2nc3ccc([N+](=O)[O-])cc3nc2/C=C(\O)c2ccc(C)cc2)cc1`, the TGI in the assay with 786-0 renal, in the assay on BT-549 breast, with HT29 colon, with MDA-N, with OVCAR-3 ovarian and in the assay with SF-268 CNS was more than 100 µM each time. In addition, the TGI in the assay on SF-539 CNS is more than 100 µM; with SR leukemia it was more than 100 µM; in the assay on T-47D breast it was more than 100 µM; with U251 CNS it was more than 100 µM; in the assay with UACC-62 melanoma, more than 69.3 µM.
With `O=C1c2ccccc2-c2[nH]c3cn[nH]c(=O)c3c21`, the TGI in the assay with 786-0 renal, with BT-549 breast, in the assay on HT29 colon, in the assay with MDA-N, in the assay with OVCAR-3 ovarian and with SF-268 CNS was more than 100 µM in each case. The TGI in the assay with SF-539 CNS, in the assay on SR leukemia, in the assay on T-47D breast, with U251 CNS and with UACC-62 melanoma was more than 100 µM each time.
Consider `CCOC(=O)c1cnccc1CC1(C#N)c2ccccc2C=CN1C(=O)c1ccccc1` (stereo not given), for which the TGI with 786-0 renal is more than 100 µM; in the assay with BT-549 breast, more than 100 µM; with HT29 colon, 36 µM; in the assay on MDA-N, 45.8 µM; in the assay with OVCAR-3 ovarian it was more than 100 µM; in the assay on SF-268 CNS, 82 µM. Further, the TGI is 75.6 µM in the assay on SF-539 CNS; 92.7 µM in the assay with SR leukemia; more than 100 µM in the assay with T-47D breast; more than 100 µM in the assay with U251 CNS; 80.9 µM in the assay with UACC-62 melanoma.
For `C/C(=N\Nc1nc2ccccc2[nH]1)c1cc2ccccc2cn1`, the TGI in the assay with 786-0 renal was determined as 0.743 µM; in the assay with BT-549 breast it was 21.2 µM; in the assay on HT29 colon, 1.02 µM; in the assay with MDA-N, 2.24 µM; in the assay on OVCAR-3 ovarian it was 0.911 µM; in the assay with SF-268 CNS it was 1.02 µM. For the same molecule, the total growth inhibition concentration (TGI) in the assay with SF-539 CNS was 0.764 µM; in the assay on SR leukemia, more than 100 µM; in the assay with T-47D breast, 1.12 µM; with U251 CNS, 0.863 µM; in the assay on UACC-62 melanoma, 1.09 µM.
As to `O=C1c2ccccc2C(=O)N1c1nc(-c2ccc(Cl)cc2)cc(N2N=C(c3ccc(Br)cc3)CC2c2ccccc2)n1` (stereo not given), the TGI was more than 34.1 µM in the assay with 786-0 renal; 16.8 µM in the assay on BT-549 breast; 9.66 µM with HT29 colon; 4.57 µM in the assay on MDA-N; 2.65 µM in the assay on OVCAR-3 ovarian; 7.72 µM in the assay with SF-268 CNS. Moreover, the TGI in the assay on SF-539 CNS worked out at 4.41 µM; in the assay with SR leukemia, 2.42 µM; with T-47D breast it was 5.26 µM; with U251 CNS, 5.99 µM; in the assay with UACC-62 melanoma, 11.5 µM.
